Patent US11452758B2, “Antimicrobial peptide derived from LL37 peptide and uses thereof” (INDUSTRY-ACADEMIC COOPERATION FOUNDATION, CHOSUN UNIVERSITY, priority 2018, dated 2022)
Values after ≈ are worked out from the molar mass of the structure shown. Where a SMILES comes first, the peptide text is derived from it.

Tests used:
S. aureus ATCC 25923 = format: cell-based, Staphylococcus aureus; details: ATCC 25923, 18 h
Text: (§1) To compare the antimicrobial activity among the peptides produced by the method of Example 1, the inventors of the present invention measured the minimal growth inhibitory concentration (MIC), which is minimum concentration of the peptide not allowing any […] of bacterial cells.
(§2) Specifically, the bacterial strains described in the following Table 2 were purchased and cultured to a mid-log phase in MHB (Mueller Hinton Broth) medium. Then, after dilution to bacterial cell concentration of 2×10^5 cells/50 μl, the cells were inoculated to a microtiter plate (NUNC, USA). Thereafter, LL37-1, LL37-2, LL37-3 or LL37-4 peptide which has been synthesized in Example 1 above was subjected to serial dilution, ½ times for each, in a 96-well plate. After adding the peptides in an amount of 50 μl to the cell plate, the cells were cultured for 18 hours at 37° C. By using a microtiter plate reader (Merck Elisa reader, Germany), the absorbance was measured at a wavelength of 600 nm to determine the MIC value of each bacterial strain. As a control group, LL37 as a mother peptide was used and subjected to the same process as above to determine the MIC value of each strain.

[1] = tested on: L. monocytogenes KCTC 3710; format: cell-based, Listeria monocytogenes; details: KCTC 3710, 18 h
Text: as §1, §2

A. baumannii #10 = format: cell-based, Acinetobacter baumannii; details: #10
Text: as §1, §2

A. baumannii #11 = format: cell-based, Acinetobacter baumannii; details: #11
Text: as §1, §2

A. baumannii #12 = format: cell-based, Acinetobacter baumannii; details: #12
Text: as §1, §2

A. baumannii #13 = format: cell-based, Acinetobacter baumannii; details: #13
Text: as §1, §2

A. baumannii #19 = format: cell-based, Acinetobacter baumannii; details: #19
Text: as §1, §2

A. baumannii #2 = format: cell-based, Acinetobacter baumannii; details: #2
Text: as §1, §2

A. baumannii #3 = format: cell-based, Acinetobacter baumannii; details: #3
Text: as §1, §2

A. baumannii #4 = format: cell-based, Acinetobacter baumannii; details: #4
Text: as §1, §2

A. baumannii #5 = format: cell-based, Acinetobacter baumannii; details: #5
Text: as §1, §2

A. baumannii #8 = format: cell-based, Acinetobacter baumannii; details: #8
Text: as §1, §2

A. baumannii #9 = format: cell-based, Acinetobacter baumannii; details: #9
Text: as §1, §2

A. baumannii KCTC 2508 = format: cell-based, Acinetobacter baumannii; details: KCTC 2508, 18 h
Text: as §1, §2

E. coli ATCC 25922 = format: cell-based, Escherichia coli; details: ATCC 25922, 18 h
Text: as §1, §2

P. aeruginosa ATCC 27853 = format: cell-based, Pseudomonas aeruginosa; details: ATCC 27853, 18 h
Text: as §1, §2

S. typhimurium KCTC 1925 = format: cell-based, Salmonella typhimurium; details: KCTC 1925, 18 h
Text: as §1, §2

[2] = Cytotoxicity in normal cell line (MTT); format: cell-based, human; details: human
Description: To determine the cytotoxicity of the peptides produced by the method of Example 1 in normal cell line, cytotoxicity was measured by using normal human keratinocyte cell line (HaCaT) and normal human fibroblast cell line (Hs27).
Specifically, normal human keratinocyte (HaCaT) cells and normal human fibroblast (Hs27) cells, which have been cultured in DMEM medium containing 10% FBS (fetal bovine serum), were aliquoted in a microtiter plate to have 1×10^4 cells per well. After culturing them for 24 hours, the cells were subjected to a treatment with LL37, LL37-1, LL37-2, LL37-3 or LL37-4 peptide, each at concentration of 0.5, 1, 2, 4, 8, 16 or 32 μM/well, followed by reaction for 24 hours in a 5% CO2 incubator. After culture, a reaction solution containing 5 mg/ml MTT (Thiazolyl Blue Tetrazolium Bromide) dissolved in phosphate buffered saline (PBS) was added in an amount of 10 μl to each well and the reaction was allowed to occur for 1 hour. After that, the supernatant was discarded, and, by dissolving MTT crystals that are formed by adding 200 μl DMSO (dimethyl sulfoxide), the absorbance at 570 nm was measured to determine the cell survival ability.

Q: For `CC[C@H](C)[C@H](NC(=O)[C@H](CCCNC(=N)N)NC(=O)[C@H](CCC(N)=O)NC(=O)[C@@H](NC(=O)[C@@H](NC(=O)[C@H](CCCNC(=N)N)NC(=O)[C@H](CCCCN)NC(=O)[C@H](Cc1ccccc1)NC(=O)[C@H](CCC(=O)O)NC(=O)[C@@H](N)CCCCN)[C@@H](C)CC)C(C)C)C(=O)N[C@@H](CCCCN)C(=O)N[C@@H](CC(=O)O)C(=O)N[C@@H](Cc1ccccc1)C(=O)N[C@@H](CC(C)C)C(=O)N[C@@H](CCCNC(=N)N)C(=O)N[C@@H](CC(N)=O)C(N)=O` [LL37-1, KEFKRIVQRIKDFLRN-NH2] (H-KEFKRIVQRIKDFLRN-NH2), which Minimal inhibitory concentration (S. aureus ATCC 25923) is on record?
A: 32 µM (≈ 66.9 µg/mL)

Q: What about the Minimal inhibitory concentration [1] of the same compound?
A: 128 µM (≈ 267 µg/mL)

Q: And the Minimal inhibitory concentration (A. baumannii #10)?
A: 4 µM (≈ 8.36 µg/mL)

Q: And the Minimal inhibitory concentration (A. baumannii #11)?
A: 4 µM (≈ 8.36 µg/mL)

Q: And the Minimal inhibitory concentration (A. baumannii #12)?
A: 8 µM (≈ 16.7 µg/mL)

Q: What about the Minimal inhibitory concentration (A. baumannii #13) of the same compound?
A: 4 µM (≈ 8.36 µg/mL)

Q: What about the Minimal inhibitory concentration (A. baumannii #19) of the same compound?
A: 8 µM (≈ 16.7 µg/mL)

Q: What about the Minimal inhibitory concentration (A. baumannii #2) of the same compound?
A: 4 µM (≈ 8.36 µg/mL)

Q: What about the Minimal inhibitory concentration (A. baumannii #3) of the same compound?
A: 8 µM (≈ 16.7 µg/mL)

Q: And the Minimal inhibitory concentration (A. baumannii #4)?
A: 8 µM (≈ 16.7 µg/mL)

Q: And the Minimal inhibitory concentration (A. baumannii #5)?
A: 4 µM (≈ 8.36 µg/mL)

Q: And the Minimal inhibitory concentration (A. baumannii #8)?
A: 4 µM (≈ 8.36 µg/mL)

Q: What about the Minimal inhibitory concentration (A. baumannii #9) of the same compound?
A: 4 µM (≈ 8.36 µg/mL)

Q: What about the Minimal inhibitory concentration (A. baumannii KCTC 2508) of the same compound?
A: 16 µM (≈ 33.4 µg/mL)

Q: And the Minimal inhibitory concentration (E. coli ATCC 25922)?
A: 128 µM (≈ 267 µg/mL)

Q: And the Minimal inhibitory concentration (P. aeruginosa ATCC 27853)?
A: 16 µM (≈ 33.4 µg/mL)

Q: And the Minimal inhibitory concentration (S. typhimurium KCTC 1925)?
A: 32 µM (≈ 66.9 µg/mL)

Q: What about the viability at 24 h, 0.5 µM ([2]; HaCaT keratinocyte cells) of the same compound?
A: 97%

Q: What about the viability at 24 h, 1 µM ([2]; HaCaT keratinocyte cells) of the same compound?
A: 103%

Q: And the viability at 24 h, 2 µM ([2]; HaCaT keratinocyte cells)?
A: 98%

Q: And the viability at 24 h, 4 µM ([2]; HaCaT keratinocyte cells)?
A: 99%

Q: And the viability at 24 h, 8 µM ([2]; HaCaT keratinocyte cells)?
A: 103%

Q: And the viability at 24 h, 16 µM ([2]; HaCaT keratinocyte cells)?
A: 101%

Q: And the viability at 24 h, 32 µM ([2]; HaCaT keratinocyte cells)?
A: 104%

Q: What about the viability at 24 h, 0.5 µM ([2]; Hs27 fibroblast cells) of the same compound?
A: 100%

Q: And the viability at 24 h, 1 µM ([2]; Hs27 fibroblast cells)?
A: 100%

Q: And the viability at 24 h, 2 µM ([2]; Hs27 fibroblast cells)?
A: 103%

Q: And the viability at 24 h, 4 µM ([2]; Hs27 fibroblast cells)?
A: 95%

Q: And the viability at 24 h, 8 µM ([2]; Hs27 fibroblast cells)?
A: 96%

Q: And the viability at 24 h, 16 µM ([2]; Hs27 fibroblast cells)?
A: 92%

Q: And the viability at 24 h, 32 µM ([2]; Hs27 fibroblast cells)?
A: 95%
